Experiment [1] addresses T1, CYP2B6 (Homo sapiens, UniProt P20813).
T1 sequence (P20813 1-491): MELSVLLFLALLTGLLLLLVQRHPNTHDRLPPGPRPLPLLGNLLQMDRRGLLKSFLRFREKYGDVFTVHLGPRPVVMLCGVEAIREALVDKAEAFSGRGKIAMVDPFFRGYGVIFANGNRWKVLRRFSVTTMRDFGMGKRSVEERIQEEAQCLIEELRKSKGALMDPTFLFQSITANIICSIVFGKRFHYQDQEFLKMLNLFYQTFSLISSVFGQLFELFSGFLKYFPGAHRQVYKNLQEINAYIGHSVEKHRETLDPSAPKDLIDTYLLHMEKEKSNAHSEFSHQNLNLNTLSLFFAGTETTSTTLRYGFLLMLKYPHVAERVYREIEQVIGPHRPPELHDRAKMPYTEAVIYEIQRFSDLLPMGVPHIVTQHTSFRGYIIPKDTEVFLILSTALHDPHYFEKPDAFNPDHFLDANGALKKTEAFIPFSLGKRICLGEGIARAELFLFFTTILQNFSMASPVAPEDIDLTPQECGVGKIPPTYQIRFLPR
The experiment is described as follows: Vivid CYP2B6 Blue fluorescence inhibition assay with recombinant baculosomes. It is filed as biochemical. Also on record: CYP2B6-containing baculosomes.

Experiment [2] deals with T1, CYP2B6. The experiment is described as follows: biochemical.

pIC50: −log10 of the molar value.

Turning to `CCCCC/C=C\C/C=C\C/C=C\C/C=C\CCCC(=O)O` [AA, arachidonic acid], the negative logarithm of the IC50 (pIC50) on CYP2B6 [1] is 5.82. With `CC/C=C\C/C=C\C/C=C\CCCCCCCC(=O)O` [ALA, α-linolenic acid], on CYP2B6 [2], the pIC50 was 5.35. As for `CC/C=C\C/C=C\C/C=C\C/C=C\C/C=C\C/C=C\CCC(=O)O` [DHA, docosahexaenoic acid], at CYP2B6 [1], the pIC50 is 5.62. Same read-out and setting: the value for `CCCCC/C=C\C/C=C\CCCCCCCC(=O)O` [LA, linoleic acid] was 5.54.

As usually defined, the pIC50 is the IC50 on a negative log10 scale, so that one unit is a factor of ten.

The values above are taken from paper PMC9754190, “Human CYP2B6 produces oxylipins from polyunsaturated fatty acids and reduces diet-induced obesity” (PLOS ONE, 2022).
